Source: patent US20130096305A1, “[…] […]” (priority 2010, published 2013)

These compounds were tested on HIV-1 LAI envelope single-round infectious reporter virus (assay: Single-round infectious luciferase reporter virus infection of MT2 cells). Conditions: Human immunodeficiency virus 1, MT2, 72 h.
Format: cell-based
Excerpt: • Virus production—Human embryonic Kidney cell line, 293T (HEK 293T), was propagated in Dulbecco's Modified Eagle Medium (Invitrogen, Carlsbad, Calif.) containing 10% fetal Bovine serum (FBS, Sigma, St. Louis, Mo.). The human T-cell leukemia cell MT2 (AIDS Research and Reference Reagent Program, Cat. 237) was propagated in RPMI 1640 (Invitrogen, Carlsbad, Calif.) containing 10% fetal bovine serum (FBS, Hyclone, Logan, Utah) • Virus infection—Single-round infectious reporter virus was produced by co-transfecting HEK 293T cells with plasmide expressing the HIV-1 LAI envelope along with a plasmid containing an HIV-1 LAI proviral cDNA with the envelope gene replaced by a firefly luciferase reporter gene (Chen et al, Ref 41). Transfections were performed using lipofectAMINE PLUS reagent as described by the manufacturer (Invitrogen, Carlsbad, Calif.).
• 1. MT2 cells were plated in black, 384 well plates at a cell density of 5×10^3 cells per well in 25 μl RPMI 1640 containing 10% FBS. • 2. Compound (diluted in dimethylsulfoxide and growth medium) was added to cells at 12.5 μl/well, so that the final assay concentration would be ≦50 nM. • 3. 12.5 μl of single-round infectious reporter virus in Dulbecco's Modified Eagle Medium was added to the plated cells and compound at an approximate multiplicity of infection (MOI) of 0.01, resulting in a final volume of 50 μl per well. • 4. Virus-infected cells were incubated at 37 degrees Celsius, in a CO2 incubator, and harvested 72 h after infection. • 5. Viral infection was monitored by measuring luciferase expression in the infected cells using a luciferase reporter gene assay kit (Steady-Glo, Promega, Madison, Wis.) as described by the manufacturer. Luciferase activity was then quantified by measuring luminescence using an EnVision Multilabel Plate Readers (PerkinElmer, Waltham, Mass.). • 6. The percent inhibition for each compound was calculated by quantifying the level of luciferase expression in cells infected in the presence of each compound as a percentage of that observed for cells infected in the absence of compound and subtracting such a determined value from 100. • 7. An EC50 provides a method for comparing the antiviral potency of the compounds of this disclosure. The effective concentration for fifty percent inhibition (EC50) was calculated with the Microsoft Excel Xlfit curve fitting software. For each compound, curves were generated from percent inhibition calculated at 10 different concentrations by using a four paramenter logistic model (model 205).

Structure (SMILES)	EC50
[2H]c1c([2H])c([2H])c(C(=O)N2C([2H])([2H])C([2H])([2H])N(C(=O)C(=O)c3c[nH]c4c(OC)ncc(OC)c34)C([2H])([2H])C2([2H])[2H])c([2H])c1[2H] [Compound 0001]	670 pM
[2H]c1c([2H])c([2H])c(C(=O)N2CCN(C(=O)C(=O)c3c[nH]c4c(OC)ncc(OC)c34)CC2)c([2H])c1[2H] [Compound 0002]	630 pM
[2H]C1([2H])N(C(=O)C(=O)c2c[nH]c3c(OC)ncc(OC)c23)C([2H])([2H])C([2H])([2H])N(C(=O)c2ccccc2)C1([2H])[2H] [Compound 0003]	550 pM
[2H]c1c([2H])c([2H])c(C(=O)N2C([2H])([2H])C([2H])([2H])N(C(=O)C(=O)c3c[nH]c4c(-n5ccnn5)ncc(OC)c34)C([2H])([2H])C2([2H])[2H])c([2H])c1[2H] [Compound 0004]	100 pM
[2H]c1c([2H])c([2H])c(C(=O)N2CCN(C(=O)C(=O)c3c[nH]c4c(-n5ccnn5)ncc(OC)c34)CC2)c([2H])c1[2H] [Compound 0005]	240 pM
[2H]C1([2H])N(C(=O)C(=O)c2c[nH]c3c(-n4ccnn4)ncc(OC)c23)C([2H])([2H])C([2H])([2H])N(C(=O)c2ccccc2)C1([2H])[2H] [Compound 0006]	80 pM
[2H]c1c([2H])c([2H])c(C(=O)N2C([2H])([2H])C([2H])([2H])N(C(=O)C(=O)c3c[nH]c4c(-n5ccnn5)ncc(F)c34)C([2H])([2H])C2([2H])[2H])c([2H])c1[2H] [Compound 0007]	110 pM
[2H]c1c([2H])c([2H])c(C(=O)N2CCN(C(=O)C(=O)c3c[nH]c4c(-n5ccnn5)ncc(F)c34)CC2)c([2H])c1[2H] [Compound 0008]	100 pM
[2H]C1([2H])N(C(=O)C(=O)c2c[nH]c3c(-n4ccnn4)ncc(F)c23)C([2H])([2H])C([2H])([2H])N(C(=O)c2ccccc2)C1([2H])[2H] [Compound 0009]	140 pM
[2H]c1c([2H])c([2H])c(C(=O)N2C([2H])([2H])C([2H])([2H])N(C(=O)C(=O)c3c[nH]c4c(-n5cnc(C)n5)ncc(OC)c34)C([2H])([2H])C2([2H])[2H])c([2H])c1[2H] [Compound 0010]	60 pM
[2H]c1c([2H])c([2H])c(C(=O)N2CCN(C(=O)C(=O)c3c[nH]c4c(-n5cnc(C)n5)ncc(OC)c34)CC2)c([2H])c1[2H] [Compound 0011]	120 pM
[2H]C1([2H])N(C(=O)C(=O)c2c[nH]c3c(-n4cnc(C)n4)ncc(OC)c23)C([2H])([2H])C([2H])([2H])N(C(=O)c2ccccc2)C1([2H])[2H] [Compound 0012]	70 pM
